Assay [1] concerns the target T1, Kappa-type opioid receptor (Homo sapiens, UniProt P41145). Kind of assay: Antagonist activity at KOR (unknown origin) expressed in HEK cells assessed as cAMP accumulation by split luciferase assay. The class given is functional, cell-based.
Assay [2] has as its target T1, Kappa-type opioid receptor. Nature of the assay: Agonist activity at KOR (unknown origin) expressed in HEK cells assessed as reduction in cAMP accumulation by split luciferase assay relative to salvinorin A. In kind it is functional, cell-based.
Assay [3] concerns the target T2, Mu-type opioid receptor (Homo sapiens, UniProt P35372). Kind of assay: Agonist activity at MOR (unknown origin) expressed in HEK cells assessed as reduction in cAMP accumulation by split luciferase assay relative to DAMGO. In kind it is functional, cell-based. A general note: Changes in cAMP serve as a functional read-out for many G protein-coupled receptors.
For assay [4], the target named is T3, Delta-type opioid receptor (Homo sapiens, UniProt P41143). Nature of the assay: Agonist activity at DOR (unknown origin) expressed in HEK cells assessed as reduction in cAMP accumulation by split luciferase assay relative to DADLE. The class given is functional, cell-based.
T3 sequence (P41143 whole entry): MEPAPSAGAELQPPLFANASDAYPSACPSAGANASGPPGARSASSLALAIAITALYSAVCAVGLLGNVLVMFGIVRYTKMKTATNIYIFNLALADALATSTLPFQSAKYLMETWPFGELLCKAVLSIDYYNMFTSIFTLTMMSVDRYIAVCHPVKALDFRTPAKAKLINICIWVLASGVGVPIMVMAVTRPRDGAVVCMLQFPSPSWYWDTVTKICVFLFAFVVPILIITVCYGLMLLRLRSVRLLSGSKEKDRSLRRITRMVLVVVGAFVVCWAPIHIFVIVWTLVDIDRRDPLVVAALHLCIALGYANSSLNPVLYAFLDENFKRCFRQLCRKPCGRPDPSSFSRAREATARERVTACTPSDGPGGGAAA
Assay [5] has as its target T3, Delta-type opioid receptor. Nature of the assay: Antagonist activity at DOR (unknown origin) expressed in HEK cells assessed as cAMP accumulation by split luciferase assay. In kind it is functional, cell-based.
Assay [6] has as its target T2, Mu-type opioid receptor. Kind of assay: Antagonist activity at MOR (unknown origin) expressed in HEK cells assessed as cAMP accumulation by split luciferase assay. In kind it is functional, cell-based.
For assay [7], the target named is T2, Mu-type opioid receptor. Nature of the assay: Displacement of [3H]DAMGO from MOR (unknown origin) expressed in HEK cells. The class given is cell-based. (In a radioligand displacement assay an active substance lowers the binding of a labelled ligand.)
Assay [8] has as its target T2, Mu-type opioid receptor. Nature of the assay: Agonist activity at MOR (unknown origin) expressed in HEK cells assessed as reduction in cAMP accumulation by split luciferase assay. In kind it is functional, cell-based.
Assay [9] addresses T1, Kappa-type opioid receptor. Kind of assay: Displacement of [3H]U69593 from KOR (unknown origin) expressed in HEK cells. In kind it is cell-based.
The target in assay [10] is T3, Delta-type opioid receptor. Kind of assay: Agonist activity at DOR (unknown origin) expressed in HEK cells assessed as reduction in cAMP accumulation by split luciferase assay. In kind it is functional, cell-based.
For assay [11], the target named is T3, Delta-type opioid receptor. Nature of the assay: Displacement of [3H]DADLE from DOR (unknown origin) expressed in HEK cells. In kind it is cell-based.
The target of assay [12] is T1, Kappa-type opioid receptor. Kind of assay: Agonist activity at KOR (unknown origin) expressed in HEK cells assessed as reduction in cAMP accumulation by split luciferase assay. The class given is functional, cell-based.
The target in assay [13] is T1, Kappa-type opioid receptor. Nature of the assay: Binding affinity to KOR (unknown origin).

Activity calls are given as the source filed them. No cut-off for these calls is given here. *1 amine or outer side, *2 acyl side, *3 side chain or, on linkers, in order; H or OH if unused. Where a SMILES comes first, the peptide text is derived from it. Bridges are numbered along the chain shown (N, C = ends). Roman numbers before positions name the chains, in order. [ ]: non-standard residue; d: D form. Piperazine(1,4-diyl) = C1CN([*:2])CCN1[*:1]; Dmt = Cc1cc(O)cc(C)c1C[C@H](N)C(=O)O; Cystamine = C(CSSCCN[*:2])N[*:1]

As usually defined, the Emax is the maximal effect, on the per cent scale that the assay sets. The term Ki denotes a measure of affinity in units of concentration, obtained from inhibition or displacement. A low value points to higher affinity.

T2 sequence (P35372 whole entry): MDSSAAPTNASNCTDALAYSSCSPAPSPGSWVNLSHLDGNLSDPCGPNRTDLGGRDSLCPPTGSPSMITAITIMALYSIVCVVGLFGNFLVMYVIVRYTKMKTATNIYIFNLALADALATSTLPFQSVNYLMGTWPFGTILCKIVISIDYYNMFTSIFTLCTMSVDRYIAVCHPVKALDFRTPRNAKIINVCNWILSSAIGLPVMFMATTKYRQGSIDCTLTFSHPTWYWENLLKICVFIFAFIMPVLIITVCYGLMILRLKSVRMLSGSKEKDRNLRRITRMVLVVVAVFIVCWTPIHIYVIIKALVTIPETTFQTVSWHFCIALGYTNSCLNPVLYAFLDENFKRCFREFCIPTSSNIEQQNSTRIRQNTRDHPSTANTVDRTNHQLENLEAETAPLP
T1 sequence (P41145 whole entry): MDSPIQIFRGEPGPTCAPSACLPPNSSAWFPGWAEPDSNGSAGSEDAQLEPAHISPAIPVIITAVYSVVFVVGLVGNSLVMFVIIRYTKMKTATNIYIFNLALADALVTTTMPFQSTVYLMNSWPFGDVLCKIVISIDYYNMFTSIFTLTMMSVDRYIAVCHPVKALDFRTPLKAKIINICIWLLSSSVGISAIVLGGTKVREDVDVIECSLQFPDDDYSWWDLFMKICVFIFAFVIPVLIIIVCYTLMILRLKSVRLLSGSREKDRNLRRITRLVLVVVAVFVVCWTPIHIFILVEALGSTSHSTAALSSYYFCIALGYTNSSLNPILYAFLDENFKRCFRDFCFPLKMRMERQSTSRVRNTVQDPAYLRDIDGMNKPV

On to `CC1(C)SSC(C)(C)[C@H](NC(=O)[C@@H](N)Cc2ccc(O)cc2)C(=O)NCC(=O)N[C@@H](Cc2ccccc2)C(=O)N2CCN(CC2)C(=O)[C@H](Cc2ccccc2)NC(=O)CNC(=O)[C@H]1NC(=O)[C@@H](N)Cc1ccc(O)cc1` (HELM PEPTIDE1{Y.[Pen].G.F}|PEPTIDE2{Y.[Pen].G.F}|CHEM1{[C1CN([*:2])CCN1[*:1]]}$PEPTIDE1,PEPTIDE2,2:R3-2:R3|PEPTIDE1,CHEM1,4:R2-1:R1|PEPTIDE2,CHEM1,4:R2-1:R2$$$V2.0), for which the result (in assay [1]; in [5]; at Mu-type opioid receptor [6]) was inactive. Besides, the Emax was 62% in assay [2], 86% on Mu-type opioid receptor [3] and 206% in assay [4].
Regarding `N[C@@H](Cc1ccc(O)cc1)C(=O)N[C@@H]1CSSC[C@@H](NC(=O)[C@@H](N)Cc2ccc(O)cc2)C(=O)NCC(=O)N[C@@H](Cc2ccccc2)C(=O)N2CCN(CC2)C(=O)[C@H](Cc2ccccc2)NC(=O)CNC1=O` (HELM PEPTIDE1{Y.[dC].G.F}|PEPTIDE2{Y.[dC].G.F}|CHEM1{[C1CN([*:2])CCN1[*:1]]}$PEPTIDE1,PEPTIDE2,2:R3-2:R3|PEPTIDE1,CHEM1,4:R2-1:R1|PEPTIDE2,CHEM1,4:R2-1:R2$$$V2.0), the outcome (in [1]; in assay [5]; on Mu-type opioid receptor [6]) was inactive. Further, the figures for the Emax (in [2]; on Mu-type opioid receptor [3]; in [4]) were 92%, 54% and 77%, respectively. Further, the Ki at Mu-type opioid receptor [7] came to 8.9 nM; in assay [9], 19 nM; in assay [11], 27 nM. The figures for the EC50 (on Mu-type opioid receptor [8]; in assay [10] (read-out: EC50); in [12]) were 513 nM, 245 nM and 339 nM, respectively.
Take `N[C@@H](Cc1ccc(O)cc1)C(=O)N[C@@H]1CSSC[C@@H](NC(=O)[C@@H](N)Cc2ccc(O)cc2)C(=O)NCC(=O)N[C@@H](Cc2ccccc2)C(=O)NCCSSCCNC(=O)[C@H](Cc2ccccc2)NC(=O)CNC1=O` (HELM PEPTIDE1{Y.[dC].G.F}|PEPTIDE2{Y.[dC].G.F}|CHEM1{[C(CSSCCN[*:2])N[*:1]]}$PEPTIDE1,PEPTIDE2,2:R3-2:R3|PEPTIDE1,CHEM1,4:R2-1:R1|PEPTIDE2,CHEM1,4:R2-1:R2$$$V2.0): the result (in [1]; in [5]; on Mu-type opioid receptor [6]) was inactive. Besides, the Emax in assay [2] came out at 99%; at Mu-type opioid receptor [3], 90%; in assay [4] it was 91%. In addition, the Ki at Mu-type opioid receptor [7] stood at 2.4 nM; in assay [9] it was 18 nM; in assay [11] it was 4.1 nM. The EC50 at Mu-type opioid receptor [8] came to 87.1 nM; in [10] (read-out: EC50), 26.9 nM; in assay [12] it was 135 nM.
For `Cc1cc(O)cc(C)c1C[C@H](N)C(=O)N[C@@H]1CSSC[C@@H](NC(=O)[C@@H](N)Cc2c(C)cc(O)cc2C)C(=O)NCC(=O)N[C@@H](Cc2ccccc2)C(=O)NCCSSCCNC(=O)[C@H](Cc2ccccc2)NC(=O)CNC1=O` (I: H-[Dmt][dC]GF / II: H-[Dmt][dC]GF; disulfide I:2-II:2; linker I:C-II:C via Cystamine), the outcome (in [1]; in assay [5]; on Mu-type opioid receptor [6]) was inactive. The Emax in [2] amounted to 98%; at Mu-type opioid receptor [3], 119%; in [4] it was 106%. The values for the Ki (at Mu-type opioid receptor [7]; in assay [9]; in assay [11]) were 0.27 nM, 0.87 nM and 0.46 nM, respectively. For the same molecule, the EC50 at Mu-type opioid receptor [8] worked out at 3.47 nM; in assay [10] (read-out: EC50), 1.45 nM; in [12], 13.5 nM.
As to `Cc1cc(O)cc(C)c1C[C@H](N)C(=O)N[C@@H]1CSSC[C@@H](NC(=O)[C@@H](N)Cc2c(C)cc(O)cc2C)C(=O)NCC(=O)N[C@@H](Cc2ccccc2)C(=O)N2CCN(CC2)C(=O)[C@H](Cc2ccccc2)NC(=O)CNC1=O` (I: H-[Dmt][dC]GF / II: H-[Dmt][dC]GF; disulfide I:2-II:2; linker I:C-II:C via Piperazine(1,4-diyl)), the outcome (in assay [1]; in assay [5]; at Mu-type opioid receptor [6]) was inactive. Moreover, the Emax worked out at 82% in assay [2], 58% at Mu-type opioid receptor [3] and 90% in assay [4]. Besides, the Ki on Mu-type opioid receptor [7] was 2.5 nM; in assay [9], 4.9 nM; in assay [11], 2 nM. In addition, the EC50 at Mu-type opioid receptor [8] is 112 nM; in [10] (read-out: EC50), 117 nM; in assay [10] (read-out: pEC50 (converted)), 11.7 nM; in [12], 63.1 nM.
The molecule `C[C@@H](NC(=O)[C@@H](N)Cc1ccc(O)cc1)C(=O)NCC(=O)N[C@@H](Cc1ccccc1)C(=O)NNC(=O)[C@H](Cc1ccccc1)NC(=O)CNC(=O)[C@@H](C)NC(=O)[C@@H](N)Cc1ccc(O)cc1` [BIPHALIN] displayed an inhibition constant Ki in [13] of 270 nM.
